Reference: patent publication US8859287B2, “Compositions and methods for treatment of cancer using tissue-specific oncolytic adenoviruses” (The Johns Hopkins University, priority 2009, dated 2014)

Experiments:
C4-2 cells = test: MTS assay, growth inhibition and cytotoxicity, virus alone or with adriamycin; type: cell-based; conditions: adriamycin alone 0.1 μg/ml; by 72 hours
Protocol: 3-(4,5)-Dimethylthiazol-2-yl)-5-(3-carboxy-methoxyphenyl)-2-(4-sulfophenyl)-2H-tetrazolium (MTS) assay: The metabolic viability of the cells was monitored using a MTS assay kit (CellTiter 96) from Promega (Madison, Wis.). Briefly cells are seeded onto 96-well plates and cultured in the presence of test agents for indicated time intervals. A mixture of MTS and phenazine methosulfate (an electron-coupling reagent; final concentrations 333 μg/ml and 25 μM, respectively) is added, and cells are incubated for 30 minutes at 37° C. Formazan formed from the reduction of MTS is quantified by measurement of absorbance of the medium at 490 nm using a microplate reader (All data have been normalized to the background signals).
Combinatory studies of Adriamycin with Ad5-RV004.21 or Ad5-RV004 virus in C4-2 cells: Combination treatment of viruses with radiation or chemotherapy hold promise as a new strategy for cancer treatment. However, there are reports of attenuated cytotoxicity of CRAds when combined with chemotherapies (e.g., doxorubicin). […] Cell cytotoxicity is measured by MTS assay after 72 hours of treatment and followed every 24 hours for a total of 7 days. […] The predicted value for the combinatory effect can be calculated and is given by the dotted gray line.

[1] = tested on: p21/Waf-1 knockdown C4-2 cells; test: Cell death of p21/Waf-1 knockdown C4-2 cells treated with drug; type: cell-based

SMILES: COc1cccc2c1C(=O)c1c(O)c3c(c(O)c1C2=O)C[C@@](O)(C(=O)CO)C[C@@H]3O[C@H]1C[C@H](N)[C@H](O)[C@H](C)O1 [adriamycin]
- C4-2 cells killed (C4-2 cells): ~50%
- cell death in p21/Waf-1 knockdown C4-2 cells compared to the wild type cell lines [1]: increase in cell death
